# From PubChem BioAssay (NCI)
#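 Dose response: 5 concentrations. Exposure: 48 h. Format: 96-well plates. Endpoint: linear interpolation; highest concentration if not reached. TGI denotes the concentration required for complete inhibition of growth.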
# What was measured:
# Experiment in all cases: NCI anticancer screen, dose series, 48 h
# [1] = tested on: LOX IMVI melanoma
# [2] = tested on: ACHN renal
# [3] = tested on: SNB-75 CNS
# [4] = tested on: NCI-H226 lung
# [5] = tested on: KM12 colon
# [6] = tested on: HOP-62 NSCLC
# [7] = tested on: HT29 colon
# [8] = tested on: NCI-H23 lung
# [9] = tested on: NCI-H522 lung
# [10] = tested on: K-562 leukemia
# [11] = tested on: HCT-15 colon
# [12] = tested on: SNB-19 CNS
# [13] = tested on: NCI-H460 lung
# [14] = tested on: NCI/ADR-RES ovarian
# [15] = tested on: BT-549 breast
# [16] = tested on: OVCAR-3 ovarian
# [17] = tested on: DU-145 prostate
# [18] = tested on: HOP-92 NSCLC
# [19] = tested on: SW-620 colon
# [20] = tested on: HCT-116 colon
# [21] = tested on: SR leukemia
# [22] = tested on: SF-539 CNS
# [23] = tested on: MALME-3M melanoma
# [24] = tested on: MDA-N
# [25] = tested on: M14 melanoma
# [26] = tested on: OVCAR-8 ovarian
# [27] = tested on: PC-3 prostate
# [28] = tested on: TK-10 renal
# [29] = tested on: RXF 393 renal
# [30] = tested on: OVCAR-5 ovarian
# [31] = tested on: CCRF-CEM leukemia
# [32] = tested on: MDA-MB-231 breast
# [33] = tested on: IGROV1 ovarian
# [34] = tested on: HL-60(TB) leukemia
# [35] = tested on: EKVX NSCLC
# [36] = tested on: U251 CNS
# [37] = tested on: SK-OV-3 ovarian
# [38] = tested on: UACC-62 melanoma
# [39] = tested on: SK-MEL-28 melanoma
# [40] = tested on: A549 NSCLC
# [41] = tested on: SK-MEL-2 melanoma
# [42] = tested on: SF-295 CNS
# [43] = tested on: SF-268 CNS
# [44] = tested on: COLO 205 colon
# [45] = tested on: SN12C renal
# [46] = tested on: HCC-2998 colon
# [47] = tested on: MDA-MB-435
# [48] = tested on: RPMI-8226 leukemia
# [49] = tested on: T-47D breast
# [50] = tested on: SK-MEL-5 melanoma
# [51] = tested on: A498 renal
# [52] = tested on: CAKI-1 renal
# [53] = tested on: HS 578T breast
# [54] = tested on: MOLT-4 leukemia
# [55] = tested on: UACC-257 melanoma
# [56] = tested on: OVCAR-4 ovarian
# [57] = tested on: 786-0 renal
# [58] = tested on: MCF7 breast
structure (smiles),measurement,setting,value
CC(=O)N(C(C)=O)c1ncc(-n2nc(-c3ccccc3)cc2-c2ccccc2)c(-c2ccccc2)n1,TGI,[1],> 10 µM
same,TGI,[2],> 10 µM
same,TGI,[3],> 10 µM
same,TGI,[4],> 10 µM
same,TGI,[5],> 10 µM
same,TGI,[6],> 10 µM
same,TGI,[7],> 10 µM
same,TGI,[8],> 10 µM
same,TGI,[9],> 10 µM
same,TGI,[10],> 10 µM
same,TGI,[11],> 10 µM
same,TGI,[12],> 10 µM
same,TGI,[13],> 10 µM
same,TGI,[14],> 10 µM
same,TGI,[15],> 10 µM
same,TGI,[16],> 10 µM
same,TGI,[17],> 10 µM
same,TGI,[18],> 10 µM
same,TGI,[19],> 10 µM
same,TGI,[20],> 10 µM
same,TGI,[21],> 10 µM
same,TGI,[22],> 10 µM
same,TGI,[23],> 10 µM
same,TGI,[24],9.42 µM
same,TGI,[25],> 10 µM
same,TGI,[26],> 10 µM
same,TGI,[27],> 10 µM
same,TGI,[28],> 10 µM
same,TGI,[29],> 10 µM
same,TGI,[30],> 10 µM
same,TGI,[31],> 10 µM
same,TGI,[32],> 10 µM
same,TGI,[33],> 10 µM
same,TGI,[34],> 10 µM
same,TGI,[35],> 10 µM
same,TGI,[36],> 10 µM
same,TGI,[37],> 10 µM
same,TGI,[38],> 10 µM
same,TGI,[39],> 10 µM
same,TGI,[40],> 10 µM
same,TGI,[41],> 10 µM
same,TGI,[42],> 10 µM
same,TGI,[43],> 10 µM
same,TGI,[44],> 10 µM
same,TGI,[45],> 10 µM
same,TGI,[46],> 10 µM
same,TGI,[47],> 10 µM
same,TGI,[48],> 10 µM
same,TGI,[49],> 10 µM
same,TGI,[50],> 10 µM
same,TGI,[51],> 10 µM
same,TGI,[52],> 10 µM
same,TGI,[53],> 10 µM
same,TGI,[54],> 10 µM
same,TGI,[55],> 10 µM
same,TGI,[56],> 10 µM
same,TGI,[57],> 10 µM
same,TGI,[58],> 10 µM
